From patent US11066668B2, “Compositions and methods for modulation of IKBKAP splicing” (Ionis Pharmaceuticals, Inc., priority 2012, dated 2021)
Oligonucleotides are written 5' to 3', each unit as a sugar letter and its base; * is a phosphorothioate linkage, no mark a phosphodiester; rarer units and linkages stand in square brackets, end groups in braces. Plain capitals give the bases only. e = 2'-O-(2-methoxyethyl) (MOE); [5mC] = 5-methylcytosine

System: IKBKAP pre-mRNA (mt19-21 minigene)
Assay: Exon 20 inclusion in HEK-293 cells harboring the mt19-21 IKBKAP minigene (RT-PCR)
Assay type: cell-based, human
Settings: HEK-293 with mt19-21 minigene; for % inclusion (exon 20): 0.007 nmol oligonucleotide by electroporation, RT-PCR two days later; for effect on exon 20 inclusion/skipping, in words: 0.007 nmol oligonucleotide
Description: Antisense oligonucleotides were designed targeting a human IKBKAP nucleic acid and were tested for their effects on IKBKAP pre-mRNA in vitro. Together, the overlapping antisense oligonucleotides spanned the entire 74-nucleotide region of the IKBKAP exon 20 sequence, as well as the 100-nucleotide intronic regions immediately upstream and downstream of exon 20. The antisense oligonucleotides are presented in Table 1, and were designed as uniform 2′-O-methoxyethyl ribose (MOE) oligonucleotides with phosphate backbones. Each oligonucleotide is 15 nucleosides in length. All cytosine residues throughout the oligonucleotide are 5-methylcytosines. ‘Start Site’ indicates the 5′-most nucleoside to which the oligonucleotide is targeted in the human gene sequence. “Stop site” indicates the 3′-most nucleoside to which the oligonucleotide is targeted in the human gene sequence. Each oligonucleotide listed in Table 1 is targeted to the human IKBKAP genomic sequence (the complement of GENBANK Accession No NT_008470.16 truncated from nucleotides 13290828 to Ser. No. 13/358,424, designated herein as SEQ ID NO: 1). ISIS 414161 has one mismatch with SEQ ID NO: 1.
Cultured HEK-293 cells harboring the mt19-21 minigene vector construct at a density of 7×10^5 cells per well were transfected using electroporation (Gene Pulsar II apparatus, Bio-Rad) with 0.007 nmol antisense oligonucleotide, as previously described (Hua, Y., et al., 2007. PLoS Biol 5:e73). […] These oligonucleotides served as controls for non-specific effects of uniform MOE oligonucleotides with phosphate backbones. Cells harboring the wt19-21 minigene and the mt19-21 minigene alone were also cultured and were used as controls for exon 20 inclusion levels. Two days later, cDNA synthesized from total RNA extracted from HEK-293 cells was amplified using the forward primer pCDNAF and reverse primer sequence IKAP21R4 to assay the splicing pattern of expressed RNAs by RT-PCR. To calculate exon 20 inclusion levels, the PCR amplicons were labeled with α^32P-dCTP. The PCR products were then separated by native PAGE, followed by phosphorimage analysis on a FUJIFILM FLA-5100 instrument (Fuji Medical Systems USA Inc.). The band intensities were quantified using Multi Gauge software Version 2.3 (FUJIFILM), and values were normalized for the G+C content according to the DNA sequence.
Treatment with antisense oligonucleotides targeting the 3′ and 5′ splice sites caused increased skipping of exon 20.
Additional oligonucleotides were designed targeting the first 30-nucleotide stretch of ISS-40. These oligonucleotides were designed by choosing sequences shifted in one nucleotide increments upstream and downstream (i.e., a “microwalk”) of ISS-40, starting from the +6 position in exon 20. The antisense oligonucleotides are presented in Table 2 and FIG. 4D, and were designed as uniform 2′-O-methoxyethyl ribose (MOE) oligonucleotides with phosphate backbones. Each oligonucleotide is 20 nucleosides in length. All cytosine residues throughout the oligonucleotide are 5-methylcytosines. ‘Start Site’ indicates the 5′-most nucleoside to which the oligonucleotide is targeted in the human gene sequence. “Stop site” indicates the 3′-most nucleoside to which the oligonucleotide is targeted in the human gene sequence. Each oligonucleotide listed in Table 2 is targeted to intron 20 of the human IKBKAP genomic sequence (the complement of GENBANK Accession No NT_008470.16 truncated from nucleotides 13290828 to Ser. No. 13/358,424, designated herein as SEQ ID NO: 1). These oligonucleotides were tested in vitro.
Cultured HEK-293 cells harboring the mt19-21 minigene vector construct at a density of 7×10^5 cells per well were transfected using electroporation (Gene Pulsar II apparatus, Bio-Rad) with 0.007 nmol antisense oligonucleotide, as previously described (Hua, Y., et al., 2007. PLoS Biol 5:e73). […]

Row | Substance | % inclusion (exon 20) (Table 1) | % inclusion (exon 20) (Table 2 (microwalk experiment)) | effect on exon 20 inclusion/skipping, in words
1 | ISIS 414139: uniform 2′-MOE 15-mer, phosphate backbone; GTAGAAAACATTTAA, SEQ ID NO 18, intron 19 (eGeTeAeGeAeAeAeAe[5mC]eAeTeTeTeAeA; splice-switching) | 20% |  | 
2 | ISIS 421991: uniform 2′-MOE 20-mer, phosphate backbone; TCGCAAACAGTACAATGGCG, SEQ ID NO 60, intron 20 (eTe[5mC]eGe[5mC]eAeAeAe[5mC]eAeGeTeAe[5mC]eAeAeTeGeGe[5mC]eG; splice-switching) |  | 91% | 
3 | ISIS 422000: uniform 2′-MOE 20-mer, phosphate backbone; GCTAACTAGTCGCAAACAGT, SEQ ID NO 69, intron 20 (eGe[5mC]eTeAeAe[5mC]eTeAeGeTe[5mC]eGe[5mC]eAeAeAe[5mC]eAeGeT; splice-switching) |  | 63% | 
4 | ISIS 421995: uniform 2′-MOE 20-mer, phosphate backbone; CTAGTCGCAAACAGTACAAT, SEQ ID NO 64, intron 20 (e[5mC]eTeAeGeTe[5mC]eGe[5mC]eAeAeAe[5mC]eAeGeTeAe[5mC]eAeAeT; splice-switching) |  | 92% | 
5 | ISIS 421996: uniform 2′-MOE 20-mer, phosphate backbone; ACTAGTCGCAAACAGTACAA, SEQ ID NO 65, intron 20 (eAe[5mC]eTeAeGeTe[5mC]eGe[5mC]eAeAeAe[5mC]eAeGeTeAe[5mC]eAeA; splice-switching) |  | 89% | 
6 | ISIS 414140: uniform 2′-MOE 15-mer, phosphate backbone; ATTAAGTAGAAAACA, SEQ ID NO 19, intron 19 (eAeTeTeAeAeGeTeAeGeAeAeAeAe[5mC]eA; splice-switching) | 13% |  | 
7 | ISIS 414133: uniform 2′-MOE 15-mer, phosphate backbone; CATTTTACCTAACTC, SEQ ID NO 12, intron 19 (e[5mC]eAeTeTeTeTeAe[5mC]e[5mC]eTeAeAe[5mC]eTe[5mC]; splice-switching) | 25% |  | 
8 | ISIS 414152: uniform 2′-MOE 15-mer, phosphate backbone; GGGCTCGATGATGAA, SEQ ID NO 31, exon 20 (antisense eGeGeGe[5mC]eTe[5mC]eGeAeTeGeAeTeGeAeA) | 3% |  | 
9 | ISIS 414143: uniform 2′-MOE 15-mer, phosphate backbone; GCAGTAACATTTTTA, SEQ ID NO 22, intron 19 (eGe[5mC]eAeGeTeAeAe[5mC]eAeTeTeTeTeTeA; splice-switching) | 8% |  | 
10 | ISIS 414153: uniform 2′-MOE 15-mer, phosphate backbone; AACCAGGGCTCGATG, SEQ ID NO 32, exon 20 (antisense eAeAe[5mC]e[5mC]eAeGeGeGe[5mC]eTe[5mC]eGeAeTeG) | 5% |  | 
11 | ISIS 414137: uniform 2′-MOE 15-mer, phosphate backbone; TTTAAATAGCCAGGA, SEQ ID NO 16, intron 19 (eTeTeTeAeAeAeTeAeGe[5mC]e[5mC]eAeGeGeA; splice-switching) | 52% |  | positive effect on exon 20 inclusion
12 | ISIS 414138: uniform 2′-MOE 15-mer, phosphate backbone; AAACATTTAAATAGC, SEQ ID NO 17, intron 19 (eAeAeAe[5mC]eAeTeTeTeAeAeAeTeAeGe[5mC]; splice-switching) | 23% |  | 
13 | ISIS 414161: uniform 2′-MOE 15-mer, phosphate backbone; AACAGTACAATGGCG, SEQ ID NO 40, intron 20; one mismatch with SEQ ID NO 1 (eAeAe[5mC]eAeGeTeAe[5mC]eAeAeTeGeGe[5mC]eG) | 88% | 79% | markedly increased inclusion of exon 20
14 | ISIS 414167: uniform 2′-MOE 15-mer, phosphate backbone; CACACATAAATCACA, SEQ ID NO 46, intron 20 (e[5mC]eAe[5mC]eAe[5mC]eAeTeAeAeAeTe[5mC]eAe[5mC]eA; splice-switching) | 13% |  | significantly decreased the levels of the included RNA isoform
15 | ISIS 414176: uniform 2′-MOE 15-mer, phosphate backbone; CATAATTTTAAGTTC, SEQ ID NO 55, intron 20 (e[5mC]eAeTeAeAeTeTeTeTeAeAeGeTeTe[5mC]; splice-switching) | 31% |  | 
16 | ISIS 414156: uniform 2′-MOE 15-mer, phosphate backbone; CCGAATCTGAGCTAA, SEQ ID NO 35, exon 20 (e[5mC]e[5mC]eGeAeAeTe[5mC]eTeGeAeGe[5mC]eTeAeA; splice-switching) | 5% |  | 
17 | ISIS 414171: uniform 2′-MOE 15-mer, phosphate backbone; AATAAAATACTTATT, SEQ ID NO 50, intron 20 (eAeAeTeAeAeAeAeTeAe[5mC]eTeTeAeTeT; splice-switching) | 32% |  | 
18 | ISIS 414162: uniform 2′-MOE 15-mer, phosphate backbone; TCGCAAACAGTACAA, SEQ ID NO 41, intron 20 (eTe[5mC]eGe[5mC]eAeAeAe[5mC]eAeGeTeAe[5mC]eAeA; splice-switching) | 79% | 82% | markedly increased inclusion of exon 20
19 | ISIS 414130: uniform 2′-MOE 15-mer, phosphate backbone; TTCACAGAGAATTAC, SEQ ID NO 9, intron 19 (eTeTe[5mC]eAe[5mC]eAeGeAeGeAeAeTeTeAe[5mC]; splice-switching) | 25% |  | 
20 | ISIS 421993: uniform 2′-MOE 20-mer, phosphate backbone; AGTCGCAAACAGTACAATGG, SEQ ID NO 62, intron 20 (eAeGeTe[5mC]eGe[5mC]eAeAeAe[5mC]eAeGeTeAe[5mC]eAeAeTeGeG; splice-switching) |  | 87% | 
21 | ISIS 421998: uniform 2′-MOE 20-mer, phosphate backbone; TAACTAGTCGCAAACAGTAC, SEQ ID NO 67, intron 20 (eTeAeAe[5mC]eTeAeGeTe[5mC]eGe[5mC]eAeAeAe[5mC]eAeGeTeAe[5mC]; splice-switching) |  | 81% | 
22 | ISIS 414149: uniform 2′-MOE 15-mer, phosphate backbone; CAACTTCTAAGTTTC, SEQ ID NO 28, exon 20 (e[5mC]eAeAe[5mC]eTeTe[5mC]eTeAeAeGeTeTeTe[5mC]; splice-switching) | 20% |  | 
23 | ISIS 421999: uniform 2′-MOE 20-mer, phosphate backbone; CTAACTAGTCGCAAACAGTA, SEQ ID NO 68, intron 20 (e[5mC]eTeAeAe[5mC]eTeAeGeTe[5mC]eGe[5mC]eAeAeAe[5mC]eAeGeTeA; splice-switching) |  | 82% | 
